Assay results reported in patent US6703382B2, “Small molecule inhibitors targeted at Bcl-2” (Georgetown University Medical Center, priority 2000, dated 2004).

Legend:
HL-60 cells [1] = experiment: Trypan-blue exclusion cell survival assay, HL-60; assay type: cell-based; conditions: Homo sapiens; HL-60, trypan-blue exclusion; read-out: cell killing IC50
Description: (§1) FIG. 3. Illustrated the effects of the compound of formula II on cell viability. Cells are plated in 24-well plates, incubated with said compound at appropriate concentrations for 14 hr. Cell viability is determined by trypan blue exclusion with hemocytometer. Percent of viable cells, as compared with untreated cells, is plotted against drug concentration.
(§2) The ability of Formula II to inhibit cell viability is highly specific and correlates well with the Bcl-2 protein expression level in these cancer cells.

MDA-231 cells [2] = experiment: Hoechst Dye apoptosis assay, MDA-231; assay type: cell-based, human; conditions: 10 μM, 12 hours, MDA-231, high Bcl-2 expression
Excerpt: (§3) Bcl-2 protein expression in human breast and other cancer cell line is characterized herein. Cell lines MCF-7, MDA-231 and MDA-361 express high levels of Bcl-2; MDA-468, BT474 and MDA-435 express median levels. […] Human myeloid leukemia cell HL-60 expresses the highest level of Bcl-2 protein among all the cell lines examined. Accordingly, MDA-231 and HL-60 cell lines with high Bcl-2 expression are positive cells and MDA-453 and T47D are negative control cells. The level of Bcl-2 protein expression is detected by Western blotting.
(§4) Using a Hoechst Dye assay, cells are treated at different doses for 12 hours and apoptotic cells are visually identified and counted under the microscope. Induction of apoptosis is evident after the treatment with Formula II at 10 μM in MDA-453 or T 47D cell lines, cells with low Bcl-2 expression.

MDA-231 cells [3] = experiment: Annexin-V FACS apoptosis assay, MDA-231; assay type: cell-based, human; conditions: 24 hours
Description: (§5) The Annexin-V FACS assay yields a more quantitative assessment of the ability of Formula II to induce of apoptosis in HL-60 and MDA-231 cells. MDA-231 cells treated with 0 (untreated), 4 and 10 μM of Formula II for 24 hours provide 0, 13% and 20.0% apoptotic cells, respectively, while HL-60 cells treated with 0, 5, 10, and 20 μM of Formula II for 24 hours provide 0, 24%, 31% and 67% of apoptotic cells, respectively (FIG. 3). Therefore, Formula II induces apoptosis in a highly dose-dependent manner in MDA-231 and HL-60 cell lines with Bcl-2 protein overexpression.

HL-60 cells [4] = experiment: Annexin-V FACS apoptosis assay, HL-60; assay type: cell-based, human; conditions: 24 hours
Description: as §5

T 47D cells = experiment: Hoechst Dye apoptosis assay, T47D; assay type: cell-based, human; conditions: 10 μM, 12 hours, low Bcl-2 expression
Excerpt: as §3, §4

HL-60 cells [5] = experiment: Hoechst Dye apoptosis assay, HL-60; assay type: cell-based, human; conditions: 10 μM, 12 hours, HL-60, high Bcl-2 expression
Excerpt: as §3, §4

[6] = target: Bcl-2 (GST-fused soluble protein) / Flu-Bak-BH3 peptide (Homo sapiens, UniProt P10415); conditions: competitive FP assay, FIG. 1
MDA-231 cells [7] = experiment: Trypan-blue exclusion cell survival assay, MDA-231; assay type: cell-based; conditions: Homo sapiens, MDA-MB-231; MDA-231, trypan-blue exclusion; read-out: cell killing IC50
Description: as §1, §2

MDA-453 cells = experiment: Hoechst Dye apoptosis assay, MDA-453; assay type: cell-based, human; conditions: 10 μM, 12 hours, MDA-453, low Bcl-2 expression
Excerpt: as §3, §4

Sequence of Bcl-2 (GST-fused soluble protein) / Flu-Bak-BH3 peptide (P10415 1-205 limits assumed): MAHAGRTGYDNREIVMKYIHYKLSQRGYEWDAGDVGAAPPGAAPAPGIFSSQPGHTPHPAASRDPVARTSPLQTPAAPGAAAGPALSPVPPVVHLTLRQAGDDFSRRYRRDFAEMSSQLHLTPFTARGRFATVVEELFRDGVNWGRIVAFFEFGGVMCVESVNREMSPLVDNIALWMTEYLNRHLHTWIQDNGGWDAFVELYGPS

For COc1ccc2c(c1)CCc1cc(OC)ccc1[N+]([O-])=[N+]2[O-] [Formula II, 2,9-dimethoxy-11,12-dihydrodibenzo[c,g][1,2] diazocine-5,6-dioxide], the IC50 (HL-60 cells [1]) was 12 µM, the induction of apoptosis (MDA-231 cells [2]) was “significant apoptosis” and the apoptotic cells (MDA-231 cells [3]; MDA-231, 4 μM) was 13%. For the same compound, the apoptotic cells (MDA-231 cells [3]; MDA-231, 10 μM) was 20.0%, the apoptotic cells (HL-60 cells [4]; HL-60, 5 μM) was 24% and the apoptotic cells (HL-60 cells [4]; HL-60, 10 μM) was 31%. For the same compound, the apoptotic cells (HL-60 cells [4]; HL-60, 20 μM) was 67%, the induction of apoptosis (T 47D cells) was “evident” and the induction of apoptosis (HL-60 cells [5]) was “significant apoptosis”. The “inhibition of the binding of the Bak-BH3 peptide to Bcl-2 in vitro” value [6] was “inhibits the binding”, the IC50 (MDA-231 cells [7]) was 15 µM and the induction of apoptosis (MDA-453 cells) was “evident”.
